pIC50: −log10 of the molar value. Bounds are passed on as bounds.

In this assay the target is T1, EP2 receptor (Homo sapiens, UniProt P43116).
T1 construct: expressed in transfected cells; host or cells: CHO-K1 cells (ATCC), transient transfection with FuGENE 6
T1 sequence (P43116 whole entry): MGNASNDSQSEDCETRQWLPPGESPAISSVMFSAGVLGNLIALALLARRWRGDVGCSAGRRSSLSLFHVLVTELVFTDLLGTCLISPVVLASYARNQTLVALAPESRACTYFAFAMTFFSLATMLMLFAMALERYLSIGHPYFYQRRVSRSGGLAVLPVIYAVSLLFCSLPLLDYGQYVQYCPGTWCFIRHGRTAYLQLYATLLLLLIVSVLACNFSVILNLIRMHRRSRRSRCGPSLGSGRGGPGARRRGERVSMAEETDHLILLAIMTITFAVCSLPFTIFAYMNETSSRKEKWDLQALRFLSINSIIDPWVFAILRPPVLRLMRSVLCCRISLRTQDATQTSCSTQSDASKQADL
Kind of assay: EP2 Potency Assay (cAMP TR-FRET, CHO-K1 cells transfected with EP2 receptor, PGE2 at EC80). The assay is classed as cell-based. Conditions: CHO-K1 cells expressing EP2, prostaglandin E2 at EC80, read-out: EP2 Potency (IC50 category). How it is done: Compound potency was measured using a cAMP TR-FRET assay.
After 6 hours incubation, the cell media was replaced with F12 medium supplemented with 10% FBS and 100 U/ml Pen-Strep. 24 hours after transfection, cells were harvested and seeded at a density of 3000 cells/well in a 384 well plate to perform the cAMP assay, using the LANCE Ultra cAMP assay kit (PerkinElmer).
Plates were then centrifuged at 1000 rpm for 1 min, agitated at 600 rpm at R.T. for 2 min, and incubated at 25° C. for 5 min. The reference agonist, prostaglandin E2 (MCE), was added to each well at the appropriate concentration to reach its EC80 value. Plates were then centrifuged at 1000 rpm for 1 min, agitated at 600 rpm at R.T. for 2 min, and incubated at 25° C. for 30 min.
A dose-response curve was prepared by plotting percent inhibition for each compound concentration, and then IC50 was calculated by fitting a curve to the plotted values and extrapolating the IC50 concentration.
In general terms: In TR-FRET formats the signal depends on donor and acceptor labels being close together.
In the case of `COc1cc(C(C)N2CCOc3c(Cl)cc(-n4ccc5cc(F)ccc54)cc3C2)ccn1` (racemic) [Compound 217, 9-chloro-7-(5-fluoroindol-1-yl)-4-[1-(2-methoxypyridin-4-yl)ethyl]-3,5-dihydro-2H-1,4-benzoxazepine], the negative-log IC50 (pIC50) – broadly, −log10 of the IC50, conventionally taken in molar units – was below 5.30. `C[C@@H]1c2cc(-n3ccc4cc(F)ccc43)cc(Cl)c2OCCN1Cc1cc[nH]c(=O)c1` (single isomer, unassigned) [Compound 236]: the pIC50 was below 5.30. Consider `COc1nccc(CN2Cc3cc(-n4ccc5cc(F)ccc54)cc(Cl)c3OC[C@H]2C)n1` [Compound 10], for which the negative logarithm of the IC50 (pIC50) is 6.00 to 6.30.

As to `C[C@@H]1COc2c(Cl)cc(-n3ccc4cc(F)ccc43)cc2CN1Cc1cc[nH]c(=O)n1` [Compound 12], the pIC50 is 6.00 to 6.30. As for `COc1ncc(CN2CCOc3c(Cl)cc(-n4ccc5cc(C)ccc54)cc3C2)cn1` [Compound 14], the pIC50 is 6.00 to 6.30. With `COc1ncc(CN2CCOc3c(Cl)cc(-n4ccc5cc(C(F)(F)F)ccc54)cc3C2)cn1` [Compound 15], the pIC50 was below 5.30.

Turning to `COc1ncc(CN2CCOc3c(Cl)cc(-n4ccc5cc(C#N)ccc54)cc3C2)cn1` [Compound 16], the negative-log IC50 (pIC50) was 6.00 to 6.30. For `COc1ncc(CN2CCOc3c(Cl)cc(-n4cc(C(F)(F)F)c5ccccc54)cc3C2)cn1` [Compound 17, 9-chloro-4-[(2-methoxypyrimidin-5-yl)methyl]-7-[3-(trifluoromethyl)indol-1-yl]-3,5-dihydro-2H-1,4-benzoxazepine], the pIC50 is 5.30 to 6.00. On to `COc1ncc(CN2CCOc3c(Cl)cc(-n4ccc5cc(N(C)C)ccc54)cc3C2)cn1` [Compound 18], for which the pIC50 is below 5.30. For the compound `COc1ccc2c(ccn2-c2cc(Cl)c3c(c2)CN(Cc2cnc(OC)nc2)CCO3)c1` [Compound 19], the pIC50 was below 5.30. `COc1ncc(CN2CCOc3c(Cl)cc(-n4ccc5cc(Cl)ccc54)cc3C2)cn1` [Compound 20]: the pIC50 is 6.00 to 6.30.

In the case of `COc1ncc(CN2CCOc3c(Cl)cc(-n4ccc5cc(SC)ccc54)cc3C2)cn1` [Compound 21], the pIC50 was below 5.30. The same measure for `COc1ncc(CN2CCOc3c(Cl)cc(-n4ccc5cc(Br)ccc54)cc3C2)cn1` [Compound 22]: below 5.30. In the case of `COc1ncc(CN2CCOc3c(Cl)cc(-n4ccc5cc(F)c(F)cc54)cc3C2)cn1` [Compound 24], the pIC50 is 5.30 to 6.00. `COc1ncc(CN2CCOc3c(Cl)cc(-n4ccc5c(F)c(Cl)ccc54)cc3C2)cn1` [Compound 26]: the pIC50 was 6.00 to 6.30. Consider `COc1ncc(CN2CCOc3c(Cl)cc(-n4cc(Cl)c5cc(F)ccc54)cc3C2)cn1` [Compound 27], for which the pIC50 is 6.00 to 6.30.

As for `COc1ncc(CN2CCOc3c(Cl)cc(-n4ccc5cc(F)c(Cl)cc54)cc3C2)cn1` [Compound 28], the pIC50 was below 5.30.

`COc1ncc(CN2CCOc3c(Cl)cc(-n4cc(Cl)c5cc(Cl)ccc54)cc3C2)cn1` [Compound 29]: the pIC50 was below 5.30. The same measure for `COc1ncc(CN2CCOc3c(Cl)cc(-n4c(C)cc5cc(F)ccc54)cc3C2)cn1` [Compound 30]: 5.30 to 6.00; for `COc1ncc(CN2CCOc3c(Cl)cc(-n4cc(C)c5cc(F)ccc54)cc3C2)cn1` [Compound 31]: 6.00 to 6.30. The same measure for `COc1ncc(CN2CCOc3c(Cl)cc(-n4ccc5cccnc54)cc3C2)cn1` [Compound 32]: 5.30 to 6.00; for `COc1ncc(CN2CCOc3c(Cl)cc(-n4ccc5cc(F)cnc54)cc3C2)cn1` [Compound 33, 9-chloro-7-(5-fluoro-1H-pyrrolo[2,3-b]pyridin-1-yl)-4-((2-methoxypyrimidin-5-yl)methyl)-2,3,4,5-tetrahydrobenzo[f][1,4]oxazepine]: 5.30 to 6.00; for `COc1ncc(CN2CCOc3c(Cl)cc(-n4ccc5cc(Cl)ncc54)cc3C2)cn1` [Compound 35]: below 5.30. Take `COc1ncc(CN2CCOc3c(Cl)cc(-n4ccc5cnccc54)cc3C2)cn1` [Compound 36]: the pIC50 is below 5.30. `COc1ncc(CN2CCOc3c(Cl)cc(-n4ccc5ncccc54)cc3C2)cn1` [Compound 37]: the pIC50 was 6.00 to 6.30.

As to `COc1ncc(CN2CCOc3c(Cl)cc(-n4ccc5nc(Cl)ccc54)cc3C2)cn1` [Compound 38], the pIC50 was 5.30 to 6.00. Take `COc1ncc(CN2CCOc3c(Cl)cc(-c4cccc5nccn45)cc3C2)cn1` [Compound 39]: the pIC50 was 5.30 to 6.00. For the compound `COc1ncc(CN2CCOc3c(Cl)cc(-c4ncc5ccccn45)cc3C2)cn1` [Compound 40, 9-chloro-7-{imidazo[1,5-a]pyridin-3-yl}-4-[(2-methoxypyrimidin-5-yl)methyl]-3,5-dihydro-2H-1,4-benzoxazepine], the negative logarithm of the IC50 (pIC50) was 5.30 to 6.00.

With `COc1ncc(CN2CCOc3c(Cl)cc(-c4ncc5cc(Cl)ccn45)cc3C2)cn1` [Compound 41, 9-chloro-7-{7-chloroimidazo[1,5-a]pyridin-3-yl}-4-[(2-methoxypyrimidin-5-yl)methyl]-3,5-dihydro-2H-1,4-benzoxazepine], the negative logarithm of the IC50 (pIC50) is 6.00 to 6.30. As to `COc1ncc(CN2CCOc3c(Cl)cc(-n4ccc5cncnc54)cc3C2)cn1` [Compound 42], the pIC50 was below 5.30. On to `COc1ncc(CN2CCOc3c(Cl)cc(-n4ccc5nccnc54)cc3C2)cn1` [Compound 43], for which the pIC50 is below 5.30. For `COc1ncc(CN2CCOc3c(Cl)cc(-n4ccc5c4CCCC5)cc3C2)cn1` [Compound 44, 9-chloro-4-[(2-methoxypyrimidin-5-yl)methyl]-7-(4,5,6,7-tetrahydroindol-1-yl)-3,5-dihydro-2H-1,4-benzoxazepine], the pIC50 was 5.30 to 6.00.

As to `COc1ncc(CN2CCOc3c(Cl)cc(N4CCc5cc(F)ccc54)cc3C2)cn1` [Compound 45, 9-chloro-7-(5-fluoro-2,3-dihydroindol-1-yl)-4-[(2-methoxypyrimidin-5-yl)methyl]-3,5-dihydro-2H-1,4-benzoxazepine], the pIC50 was 6.00 to 6.30.

Take `COc1ncc(CN2CCOc3c(Cl)cc(N4CCc5cc(Cl)ccc54)cc3C2)cn1` [Compound 46, 9-chloro-7-(5-chloro-2,3-dihydroindol-1-yl)-4-[(2-methoxypyrimidin-5-yl)methyl]-3,5-dihydro-2H-1,4-benzoxazepine]: the pIC50 is 6.00 to 6.30. On to `COc1ncc(CN2CCOc3c(Cl)cc(N4Cc5ccc(F)cc5C4)cc3C2)cn1` [Compound 47, 9-chloro-7-(5-fluoro-1,3-dihydroisoindol-2-yl)-4-[(2-methoxypyrimidin-5-yl)methyl]-3,5-dihydro-2H-1,4-benzoxazepine], for which the pIC50 was 5.30 to 6.00. As to `COc1ncc(CN2CCOc3c(Cl)cc(N4Cc5ccccc5C4=O)cc3C2)cn1` [Compound 48], the pIC50 is below 5.30. As for `COc1ncc(CN2CCOc3c(Cl)cc(N4CCCc5cc(F)ccc54)cc3C2)cn1` [Compound 49, 9-chloro-7-(6-fluoro-3,4-dihydroquinolin-1(2H)-yl)-4-((2-methoxypyrimidin-5-yl)methyl)-2,3,4,5-tetrahydrobenzo[f][1,4]oxazepine], the pIC50 was below 5.30. The result for `COc1ncc(CN2CCOc3c(Cl)cc(N4CCOc5cc(F)ccc54)cc3C2)cn1` [Compound 51, 9-chloro-7-(7-fluoro-2,3-dihydro-1,4-benzoxazin-4-yl)-4-[(2-methoxypyrimidin-5-yl)methyl]-3,5-dihydro-2H-1,4-benzoxazepine] reads below 5.30. The same measure for `COc1ncc(CN2CCOc3c(Cl)cc(N4CCSc5ccccc54)cc3C2)cn1` [Compound 52]: below 5.30.

(Values after patent publication US12624024B2, “EP2 antagonist compounds” (Reservoir Neuroscience, Inc., priority 2021, dated 2026).)
